Test: gradient 5% acetonitrile 3 min, to 50% in 2 min, to 85% in 15 min, held 3 min, 100 µL/min
Conditions: column: Zorbax Extend-C18 2.1 x 50 mm; eluents: water / acetonitrile, 0.1% formic acid
Procedure, shortened: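 Retention times of pure standards were taken from adduct peaks that were selected by computer and manually inspected. Over 3 months, mixtures of ~100 molecules were run by HPLC–quadrupole time-of-flight mass spectrometry in positive and negative ionization mode. The Zorbax Extend-C18 column (2.1 × 50 mm, 1.8 μm) ran at 100 μL/min in water and acetonitrile, each containing 0.1% formic acid, with 40 μL dead volume and 900 μL dwell volume.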

Row | RP-LC retention time | Compound
1 | 771 s | Cc1nnc(N2CCCC(C(=O)NCc3ccccc3F)C2)c2nn(-c3ccc(Cl)cc3)c(C)c12 (centres undefined)
2 | 728 s | CCCn1cc(-c2nc(-c3ccncc3)no2)c(=O)c2cc(F)ccc21
3 | 884 s | CC(CNC(=O)c1cc2n(n1)CC(C)(C(=O)NC1CCCC1)N(C)C2=O)c1ccccc1 (centres undefined)
4 | 627 s | O=C(CN1C[C@H]2C[C@H](C1)[C@H]1CCCC(=O)N1C2)NCCC1=CCCCC1
5 | 905 s | O=C(CN1C(=O)CCCc2cc(S(=O)(=O)N3CCCCCC3)ccc21)NCc1ccccc1
6 | 817 s | Cc1nc(-c2cccc(F)c2)sc1CCNC(=O)Nc1ccc2c(c1)OCO2
7 | 787 s | Cc1cccc(C)c1NC(=O)Cn1nc2nc(N3CCCC(C)C3)ccn2c1=O (centres undefined)
8 | 758 s | O=C(NCc1csc(-c2ccccc2)n1)C1CCN(S(=O)(=O)c2ccc3[nH]c(=O)oc3c2)CC1
9 | 889 s | CC(C)(C)n1nc(C2CC2)cc1NC(=O)Nc1ccccc1
10 | 592 s | C=CCc1cc(OC)ccc1OCC(O)CN1CCN(C(=O)OCC)CC1 (centres undefined)
11 | 742 s | COc1cccc(N2CCN(C(=O)C3CC(=O)N(c4n[nH]c5cccc(F)c45)C3)CC2)c1 (centres undefined)
12 | 622 s | CC(Oc1cccc(Cl)c1)C(=O)N1CCn2cnnc2C1 (centres undefined)
13 | 756 s | Cc1ccc(NC(=O)Cn2c(C)nc3onc(C)c3c2=O)cc1C
14 | 742 s | Cc1cc(NC(=O)C(=O)NCc2nc(-c3ccccc3)no2)no1
15 | 931 s | O=C(c1cccc(F)c1)N1CCN(C(=O)c2nnn3c2COC(c2ccc(Cl)cc2)C3)CC1 (centres undefined)
16 | 734 s | Cc1nc2cc(N3CC(C(=O)NCc4ccccc4Cl)CC3=O)ccc2o1 (centres undefined)
17 | 723 s | Cc1[nH]nc(-c2ccc(S(=O)(=O)NC3CC3)o2)c1C
18 | 987 s | O=c1c2sccc2n(Cc2nc(-c3ccc(F)cc3)no2)c(=O)n1-c1ccc(F)cc1
19 | 615 s | Cc1ccsc1CN1CC(Oc2ccccc2C(=O)NC2CC2)C1
20 | 608 s | CC(=O)N[C@@H]1CN(C(=O)c2cc(Cl)ccc2F)C[C@H]1CO
21 | 566 s | COc1ccc(C(O)CN2CCN(c3ncccn3)CC2)cc1OC (centres undefined)
22 | 916 s | Cc1ccc(C)c(C(=O)N2CCCC(COc3ccc(C(=O)NC(C)C)cc3)C2)c1 (centres undefined)

Row | RP-LC retention time | Compound
23 | 980 s | Cc1cc2c(cc1S(=O)(=O)N1CCCCC1)N(C(=O)C1CC1)CC2
24 | 624 s | O=C(c1ccncc1)N1CCC(n2nc(-c3ccsc3)ccc2=O)CC1
25 | 657 s | Cc1ccn2c(NC(=O)C3CCCCC3)c(-c3ccc(F)cc3)nc2c1
26 | 918 s | O=C(c1cc2ccccc2[nH]1)N1CCN(c2ccc(=O)n(-c3ccc(Cl)cc3)n2)CC1
27 | 812 s | Cc1ccc(-c2nnc(Cc3nc(-c4cccnc4)no3)o2)cc1F
28 | 754 s | Cc1nc(N2CCCC2)c2c(C(=O)NCCCc3ccccc3)c(C)oc2n1
29 | 734 s | COC(=O)c1ncn2c1C(=O)N(c1cc(C)cc(C)c1)C(C)(C(=O)NC1CCCC1)C2 (centres undefined)
30 | 925 s | Cc1ccc(CNC(=O)C2(C)CCN(S(=O)(=O)c3ccccc3)CC2)cc1
31 | 835 s | O=c1ccn(-c2ccccc2)nc1-c1nc(-c2ccc3c(c2)OCO3)no1
32 | 724 s | Cc1noc(COC2CCN(C(=O)Cc3c[nH]c4ccccc34)CC2)n1
33 | 592 s | COc1ccc(OCc2noc(CNC(=O)Cn3cnc4ccccc43)n2)cc1
34 | 656 s | Cn1c(=O)n([C@H]2CCN(C(=O)c3ccco3)C2)c2ncccc21
35 | 727 s | COc1cccc(OCC(O)CN2CCN(c3ccccc3)CC2)c1 (centres undefined)
36 | 723 s | CCOC(=O)c1cn(CC(=O)NCCC(C)C)c2nc(C)ccc2c1=O
37 | 1130 s | CC(C)(C)OC(=O)Cn1cnc2c(-c3cccc(Cl)c3)csc2c1=O
38 | 720 s | COc1ccc(-c2nc3ccccn3c2NC(=O)c2ccc(Cl)c([N+](=O)[O-])c2)cc1
39 | 921 s | Cc1cccc(N2CCN(C(=O)c3cc(C4CC4)[nH]n3)CC2)c1C
40 | 565 s | O=C(CC1C(=O)NCCN1C(=O)CN1CCN(c2ccccn2)CC1)Nc1ccccc1 (centres undefined)
41 | 1150 s | O=S(=O)(Nc1ccc(F)cc1)c1cccnc1Nc1ccc(Br)cc1
42 | 739 s | Cc1cc(C)n(-c2ccnc(N3CCC(C(=O)N4CCCC4)CC3)n2)n1
43 | 1050 s | Cc1ccc(NC(=O)C2CCN(S(=O)(=O)c3ccc4c(c3)sc(=O)n4C(C)C)CC2)cc1F
44 | 842 s | CC(C)n1cnc(S(=O)(=O)N2CCCC(C(=O)Nc3cccc(Cl)c3)C2)c1 (centres undefined)

Row | RP-LC retention time | Compound
45 | 739 s | Cc1ccc(F)cc1NS(=O)(=O)c1cc(-c2[nH]ncc2C(=O)N2CCCC2)oc1C
46 | 648 s | O=C(NC1CCN(c2ccc(=O)[nH]n2)C1)c1ccc(F)c(Cl)c1 (centres undefined)
47 | 712 s | COc1ccc(C(=O)N2C[C@@H]3C[C@H]2C[C@@H]3NC(=O)c2cccs2)cc1F
48 | 793 s | CCc1c(C2CCN(C(=O)Nc3ccc(C)c(C)c3)CC2)noc1N
49 | 549 s | Cn1ccnc1SCC(=O)c1ccc([N+](=O)[O-])cc1
50 | 739 s | Cc1ccc(Nc2c(-c3ccc(N4CCOCC4)cc3)nc3c(C)cccn23)cc1
51 | 877 s | CCCCN1C(=O)CN(C2CCCCC2)C(=O)C1c1ccc(OC)c(OC)c1 (centres undefined)
52 | 700 s | O=C(Cn1cc(-c2ccccc2)c2ncnc(N3CCOCC3)c21)N1CCCCC1
53 | 914 s | Cc1ccc(CNC(=O)C2(C)CCN(C(=O)Nc3ccc(C)c(F)c3)CC2)cc1
54 | 834 s | Cn1c(=O)c(N2CCN(C(=O)c3cc(F)ccc3F)CC2)nc2cccnc21
55 | 1080 s | CCCCC(=O)N1CCN(c2nc3ccccc3nc2C(F)(F)F)CC1
56 | 806 s | Cc1cc(Nc2ccc(Cl)cc2C)n2ncnc2n1
57 | 974 s | c1ccc(-c2noc(NCc3ccc4c(c3)OCO4)n2)cc1
58 | 933 s | C=CCN(CC=C)c1nc(-c2ccc(Cl)cc2Cl)nc2ccccc12
59 | 740 s | CNC(=O)C1CN(C(=O)Cc2cccc(Cl)c2)CC12CCCC2 (centres undefined)
60 | 616 s | Cc1nc(-c2ccccc2)nc2c1CC(=O)N2Cc1cccnc1
61 | 861 s | CN(Cc1ccco1)C(=O)C1c2ccccc2CC(=O)N1Cc1ccccc1 (centres undefined)
62 | 1140 s | CC(C)Oc1ccc(-c2noc(Cn3c(=O)n(-c4ccc(Cl)cc4)c(=O)c4sccc43)n2)cc1
63 | 1210 s | CCOc1ccc(-c2csc3c(=O)n(Cc4ccc(Br)cc4)cnc23)cc1OCC
64 | 1080 s | CCCN1C(=O)COc2ccc(-c3noc(Cc4ccc(OC)cc4)n3)cc21
65 | 668 s | COc1ccc(OC)c(NC(=O)Nc2c(-c3ccccc3)nc3ccccn23)c1
66 | 818 s | O=C(Cn1c(=O)n(Cc2ccc3c(c2)OCO3)c(=O)c2ncccc21)c1ccccc1

Row | RP-LC retention time | Compound
67 | 962 s | CCOC(=O)N1CCN(c2nc(F)c3c(c2F)S(=O)(=O)CCN3Cc2ccco2)CC1
68 | 575 s | CCn1cnc(S(=O)(=O)N2CCCC(C(=O)N3CCN(c4ccccn4)CC3)C2)c1 (centres undefined)
69 | 811 s | CC1(C)COCN1S(=O)(=O)c1ccc(C(=O)Nc2nnc(-c3ccc(F)cc3)o2)cc1
70 | 1090 s | CCOc1ccccc1NC(=O)CSc1cc(N2CCN(c3ccc(OC)cc3)CC2)ncn1
71 | 685 s | Cc1ccc(CNC(=O)C2(C)CCCCC(=O)N2)cc1 (centres undefined)
72 | 990 s | CNS(=O)(=O)c1cccnc1Nc1cc(C)cc(C)c1
73 | 825 s | O=C(Nc1cccc(OCc2nnc(-c3ccccc3)o2)c1)c1cnccn1
74 | 914 s | COc1ccc(-c2nc(-c3cn(Cc4ccc(F)cc4)nn3)no2)cc1OC
75 | 751 s | CC(C)(C)c1ccc(C(=O)Nc2nnc(-c3ccccn3)o2)cc1
76 | 1280 s | Cc1ccc(-c2csc(Cc3nc(-c4ccccc4Cl)no3)n2)cc1
77 | 952 s | CCS(=O)(=O)N1CCC(F)(c2nc(-c3ccccc3)no2)CC1
78 | 827 s | N#CCCN(C(=O)c1noc2c1CCCC2)c1ccccc1
79 | 1070 s | CC(C)c1ccc(NC(=O)Cn2nc(N3CCSCC3)c3ccccc3c2=O)cc1
80 | 608 s | CC(=O)N1CCCC(CCc2nnc(C3CCOCC3)o2)C1 (centres undefined)
81 | 829 s | Cc1ccc(Nc2c(-c3cccc(O)c3)nc3cnccn23)cc1Cl
82 | 595 s | Cc1ccc2c(Nc3ccc(CC(=O)O)cc3)c(C(=O)N3CCCCCC3)cnc2n1
83 | 1250 s | Cc1sc(C)c(S(=O)(=O)NCC(C)c2ccccc2)c1-c1cc(C(F)(F)F)on1 (centres undefined)
84 | 711 s | COc1ccc(Nc2c(-c3ccc(OC)cc3)nc3nc(C)cc(C)n23)cc1
85 | 552 s | Cc1ccc2nc(C(=O)NCCN3CCCCC3C)cn2c1 (centres undefined)
86 | 712 s | COc1ccc(C(=O)N2CC(n3cc(COCC4CC4)nn3)C2)cc1
87 | 887 s | CCc1ccc(NC(=O)N2C[C@@H](F)C[C@H]2C(=O)N2CCc3ccccc3C2)cc1

Row | Compound | RP-LC retention time
88 | Cc1nnc(-c2ccc3ccn(CC(=O)N4CCC5(CC4)OCCO5)c3c2)o1 | 673 s
89 | CN1CC[C@@]2(C)c3cc(OC(=O)Nc4ccccc4)ccc3N(C)[C@@H]12 | 718 s

Reference: the METLIN SMRT retention time set (Domingo-Almenara et al. 2019)
